{"source": "patent US20120328588A1", "about": "“COMPOUND PREPARATION AND ITS USES FOR PREVENTION AND TREATMENT OF HEARING IMPAIRMENT” (The Second Military Medical University of Chinese PLA, priority 2010, published 2012)", "key": {"[1]": {"tested_on": "guinea pigs exposed to noise", "test": "Preventive effect on noise-induced hearing impairment: hearing threshold shift of guinea pigs, drug given two days before noise exposure", "assay_type": "in vivo", "procedure": "Experiments with Hearing Threshold Shift Sixty-four guinea pigs with normal weight and pure white hair were randomly divided into control group, alpha-lipoic acid group, nimodipine group, and compound preparation group. The guinea pigs were exposed to an octave band of noise (OBN) centered at 4 kHz, 115 dB SPL, 4 h per day. Two days before noise exposure, animals in the study groups were administered with the corresponding drug dose as designed, and those in the control group were administered with normal saline (NS). Hearing threshold shift of the animals was determined at different intervals of noise exposure in different groups. The synergistic effect of alpha-lipoic acid and nimodipine on regulating hearing threshold shift was observed and analyzed using q test.\n(§1) Being less than 20 dB was considered as an effective value. The synergistic effect of alpha-lipoic acid and nimodipine was analyzed using q test. Pla=2/8 means that there were 8 guinea pigs in the alpha-lipoic acid group, within which 2 were effective, and the remaining 6 were invalid. The mean of the rest was analogous to Pla=2/8."}, "[2]": {"tested_on": "guinea pigs exposed to noise", "test": "Therapeutic effect on noise-induced hearing impairment: hearing threshold shift of guinea pigs, drug given intravenously within 7 days after noise exposure", "assay_type": "in vivo", "procedure": "Eighty guinea pigs with normal weight and pure white hair were randomly divided into control group, alpha-lipoic acid group, nimodipine group, and compound preparation group. The animals were exposed to an octave band of noise (OBN) centered at 4 kHz, 115 dB SPL, 4 h per day. Animals in the study groups were administered intravenously with the corresponding drug dose as designed, and those in the control group were administered with NS within 7 days after noise exposure. Hearing threshold shift of the animals was determined at different intervals of noise exposure in different groups. The synergistic effect of alpha-lipoic acid and nimodipine on regulating hearing threshold shift was observed and analyzed using q test.\nas §1, with “test. Pla=4/10” for “test. Pla=2/8”, “were 10” for “were 8”, “which 4” for “which 2”, “to Pla=4/10.” for “to Pla=2/8.”"}}}
{"compound": "COCCOC(=O)C1=C(C)NC(C)=C(C(=O)OC(C)C)C1c1cccc([N+](=O)[O-])c1", "note": "(stereo not shown) [NIM, Nimodipine]", "values": [{"measurement": "Mean change in hearing threshold shift", "setting": "[1]; NIM 2 mg/kg, at 1st after exposure", "value": 41.0, "unit": "dB"}, {"measurement": "Mean change in hearing threshold shift", "setting": "[1]; NIM 2 mg/kg, at 7th day after exposure", "value": 23.5, "unit": "dB"}, {"measurement": "Mean change in hearing threshold shift", "setting": "[1]; NIM 4 mg/kg, at 1st after exposure", "value": 38.5, "unit": "dB"}, {"measurement": "Mean change in hearing threshold shift", "setting": "[1]; NIM 4 mg/kg, at 7th day after exposure", "value": 24, "unit": "dB"}, {"measurement": "Mean change in hearing threshold shift", "setting": "[1]; NIM 8 mg/kg, at 1st after exposure", "value": 38, "unit": "dB"}, {"measurement": "Mean change in hearing threshold shift", "setting": "[1]; NIM 8 mg/kg, at 7th day after exposure", "value": 22.0, "unit": "dB"}, {"measurement": "Mean change in hearing threshold shift", "setting": "[1]; NIM 16 mg/kg, at 1st after exposure", "value": 36, "unit": "dB"}, {"measurement": "Mean change in hearing threshold shift", "setting": "[1]; NIM 16 mg/kg, at 7th day after exposure", "value": 22.0, "unit": "dB"}, {"measurement": "Mean change in hearing threshold shift", "setting": "[2]; NIM 2 mg/kg intravenously, 2 weeks after exposure", "value": 23.5, "unit": "dB"}, {"measurement": "Mean change in hearing threshold shift", "setting": "[2]; NIM 2 mg/kg intravenously, at 1st day after exposure", "value": 41.0, "unit": "dB"}, {"measurement": "Mean change in hearing threshold shift", "setting": "[2]; NIM 4 mg/kg intravenously, 2 weeks after exposure", "value": 24, "unit": "dB"}, {"measurement": "Mean change in hearing threshold shift", "setting": "[2]; NIM 4 mg/kg intravenously, at 1st day after exposure", "value": 38.5, "unit": "dB"}, {"measurement": "Mean change in hearing threshold shift", "setting": "[2]; NIM 8 mg/kg intravenously, 2 weeks after exposure", "value": 22.0, "unit": "dB"}, {"measurement": "Mean change in hearing threshold shift", "setting": "[2]; NIM 8 mg/kg intravenously, at 1st day after exposure", "value": 38, "unit": "dB"}, {"measurement": "Mean change in hearing threshold shift", "setting": "[2]; NIM 16 mg/kg intravenously, 2 weeks after exposure", "value": 22.0, "unit": "dB"}, {"measurement": "Mean change in hearing threshold shift", "setting": "[2]; NIM 16 mg/kg intravenously, at 1st day after exposure", "value": 36, "unit": "dB"}]}
{"compound": "O=C(O)CCCCC1CCSS1", "note": "(stereo not shown) [LA, 1-2 dithiolane-3-pentanoic acid]", "values": [{"measurement": "Mean change in hearing threshold shift", "setting": "[1]; LA 80 mg/kg, at 1st after exposure", "value": 32.5, "unit": "dB"}, {"measurement": "Mean change in hearing threshold shift", "setting": "[1]; LA 80 mg/kg, at 7th day after exposure", "value": 20.5, "unit": "dB"}, {"measurement": "P (effective guinea pigs / guinea pigs in group)", "setting": "[1]; LA 80 mg/kg, effective = mean hearing threshold shift less than 20 dB within 7 days of exposure to noise", "value": "Pla = 2/8"}, {"measurement": "Mean change in hearing threshold shift", "setting": "[2]; LA 80 mg/kg intravenously, 2 weeks after exposure", "value": 20.5, "unit": "dB"}, {"measurement": "Mean change in hearing threshold shift", "setting": "[2]; LA 80 mg/kg intravenously, at 1st day after exposure", "value": 32.5, "unit": "dB"}, {"measurement": "P (effective guinea pigs / guinea pigs in group)", "setting": "[2]; LA 80 mg/kg intravenously, effective = mean hearing threshold shift less than 20 dB within 7 days after noise exposure", "value": "Pla = 4/10"}]}
